Experimental data taken from patent US20140343017A1, “PYRROLE COMPOUND” (Kabushiki Kaisha Yakult Honsha, priority 2012, published 2014).

Tests used:
Assay in all cases: Inhibitory effect on growth of human cancer cells (in vitro), WST-8
Assay type in all cases: cell-based
[1] = test system: human colorectal cancer HCT116 cells; conditions: 96 hours culture
Description: (§1) Each pyrrole compound of the present invention was studied for its effects on the growth of human non-small cell lung cancer A549 cells and human colorectal cancer HT-29 cells and HCT116 cells. The cells of each line were suspended in an RPMI1640 medium supplemented with 10% fetal bovine serum and inoculated at a cell density of 1000 cells/50 μL/well to a 96-well plate. After overnight culture, each compound diluted with a medium was added thereto at a concentration of 50 μL/well, and the cells were further cultured for 96 hours. After the completion of culture, WST-8 (Seikagaku Corp.) was added thereto at a concentration of 10 μL/well, and the cells were cultured at 37° C. for approximately 1 hour under 5% CO2 conditions, followed by measurement of absorbance at 450 nm.

[2] = test system: human non-small cell lung cancer A549 cells; conditions: 96 hours culture
Description: as §1

[3] = test system: human colorectal cancer HT-29 cells; conditions: Homo sapiens, HT-29, 96 h, 96 hours culture, read-out: IC50 (nM) HT29
Description: as §1

IC50 ([1]; Homo sapiens, HCT-116, 96 h) [nM]	IC50 ([2]; Homo sapiens, A549, 96 h) [nM]	IC50 [3] [nM]	IC50 [1] [nM]	IC50 [2] [nM]	SMILES
182	87.8	43.3	–	–	Cc1[nH]c(-c2nnn(CCN)n2)c(C)c1C(=O)c1cccc(Br)c1 [Compound 103, (5-(2-(2-aminoethyl)-2H-tetrazol-5-yl)-2,4-dimethyl-1H-pyrrol-3-yl)(3-bromophenyl)methanone]
8.5	11	8.5	–	–	CC(=O)OCCn1nnc(-c2[nH]c(C)c(C(=O)c3cccc(Br)c3)c2C)n1 [Compound 104, 2-(5-(4-(3-bromobenzoyl)-3,5-dimethyl-1H-pyrrol-2-yl)-2H-tetrazol-2-yl)ethyl acetate]
41	49.2	42.5	–	–	Cc1[nH]c(-c2nnn(CCO)n2)c(C)c1C(=O)c1cccc(C2CC2)c1 [Compound 115, (3-cyclopropylphenyl)(5-(2-(2-hydroxyethyl)-2H-tetrazol-5-yl)-2,4-dimethyl-1H-pyrrol-3-yl)methanone]
118	83	42.1	–	–	Cc1c(-c2nnn(CCO)n2)[nH]c(C=O)c1C(=O)c1cccc(Br)c1 [Compound 117, 3-(3-bromobenzoyl)-5-(2-(2-hydroxyethyl)-2H-tetrazol-5-yl)-4-methyl-1H-pyrrole-2-carboaldehyde]
145	50.1	42.6	–	–	Cc1c(-c2nnn(CCO)n2)[nH]c(C(F)F)c1C(=O)c1cccc(Br)c1 [Compound 119, (3-bromophenyl)(2-(difluoromethyl)-5-(2-(2-hydroxyethyl)-2H-tetrazol-5-yl)-4-methyl-1H-pyrrol-3-yl)methanone]
37.8	38.6	30.4	–	–	COc1ccc(C(=O)c2c(C=O)[nH]c(-c3nnn(CCOC(C)=O)n3)c2C)cc1Br [Compound 124, 2-(5-(4-(3-bromo-4-methoxybenzoyl)-5-formyl-3-methyl-1H-pyrrol-2-yl)-2H-tetrazol-2-yl)ethyl acetate]
93.2	45.8	35.2	–	–	COc1ccc(C(=O)c2c(C=O)[nH]c(-c3nnn(CCO)n3)c2C)cc1Br [Compound 125, 3-(3-bromo-4-methoxybenzoyl)-5-(2-(2-hydroxyethyl)-2H-tetrazol-5-yl)-4-methyl-1H-pyrrole-2-carboaldehyde]
38.2	38.2	33.1	–	–	COc1ccc(C(=O)c2c(C(F)F)[nH]c(-c3nnn(CCOC(C)=O)n3)c2C)cc1Br [Compound 126, 2-(5-(4-(3-bromo-4-methoxybenzoyl)-5-(difluoromethyl)-3-methyl-1H-pyrrol-2-yl)-2H-tetrazol-2-yl)ethyl acetate]
40.4	44.7	36.9	–	–	COc1ccc(C(=O)c2c(C(F)F)[nH]c(-c3nnn(CCO)n3)c2C)cc1Br [Compound 127, (3-bromo-4-methoxyphenyl)(2-(difluoromethyl)-5-(2-(2-hydroxyethyl)-2H-tetrazol-5-yl)-4-methyl-1H-pyrrol-3-yl)methanone]
22.4	27.8	27.4	–	–	COc1ccc(C(=O)c2c(CO)[nH]c(-c3nnn(CCOC(C)=O)n3)c2C)cc1Br [Compound 128, 2-(5-(4-(3-bromo-4-methoxybenzoyl)-5-(hydroxymethyl)-3-methyl-1H-pyrrol-2-yl)-2H-tetrazol-2-yl)ethyl acetate]
41.2	46.9	34.2	–	–	COc1ccc(C(=O)c2c(CO)[nH]c(-c3nnn(CCO)n3)c2C)cc1Br [Compound 129, (3-bromo-4-methoxyphenyl)(5-(2-(2-hydroxyethyl)-2H-tetrazol-5-yl)-2-(hydroxymethyl)-4-methyl-1H-pyrrol-3-yl)methanone]
36.9	35.5	30.7	–	–	COc1ccc(C(=O)c2c(C(C)O)[nH]c(-c3nnn(CCOC(C)=O)n3)c2C)cc1Br (stereo not drawn) [Compound 130, 2-(5-(4-(3-bromo-4-methoxybenzoyl)-5-(1-hydroxyethyl)-3-methyl-1H-pyrrol-2-yl)-2H-tetrazol-2-yl)ethyl acetate]
90.9	45.1	34.8	–	–	COc1ccc(C(=O)c2c(C(C)O)[nH]c(-c3nnn(CCO)n3)c2C)cc1Br (stereo not drawn) [Compound 131, (3-bromo-4-methoxyphenyl)(2-(1-hydroxyethyl)-5-(2-(2-hydroxyethyl)-2H-tetrazol-5-yl)-4-methyl-1H-pyrrol-3-yl)methanone]
167	248	179	–	–	CC(=O)OCCn1nnc(-c2[nH]c(C#N)c(C(=O)c3cccc(Br)c3)c2C)n1 [Compound 132, 2-(5-(4-(3-bromobenzoyl)-5-cyano-3-methyl-1H-pyrrol-2-yl)-2H-tetrazol-2-yl)ethyl acetate]
158	238	192	–	–	Cc1c(-c2nnn(CCO)n2)[nH]c(C#N)c1C(=O)c1cccc(Br)c1 [Compound 133, 3-(3-bromobenzoyl)-5-(2-(2-hydroxyethyl)-2H-tetrazol-5-yl)-4-methyl-1H-pyrrole-2-carbonitrile]
186	278	156	–	–	COC(=O)c1[nH]c(-c2nnn(CCO)n2)c(C)c1C(=O)c1cccc(Br)c1 [Compound 137, methyl 3-(3-bromobenzoyl)-5-(2-(2-hydroxyethyl)-2H-tetrazol-5-yl)-4-methyl-1H-pyrrole-2-carboxylate]
167	239	170	–	–	COc1ccc(C(=O)c2c(C#N)[nH]c(-c3nnn(CCOC(C)=O)n3)c2C)cc1Br [Compound 138, 2-(5-(4-(3-bromo-4-methoxybenzoyl)-5-cyano-3-methyl-1H-pyrrol-2-yl)-2H-tetrazol-2-yl)ethyl acetate]
171	245	174	–	–	COc1ccc(C(=O)c2c(C#N)[nH]c(-c3nnn(CCO)n3)c2C)cc1Br [Compound 139, 3-(3-bromo-4-methoxybenzoyl)-5-(2-(2-hydroxyethyl)-2H-tetrazol-5-yl)-4-methyl-1H-pyrrole-2-carbonitrile]
219	306	232	–	–	CNC(=O)c1[nH]c(-c2nnn(CCO)n2)c(C)c1C(=O)c1ccc(OC)c(Br)c1 [Compound 149, 3-(3-bromo-4-methoxybenzoyl)-5-(2-(2-hydroxyethyl)-2H-tetrazol-5-yl)-N,4-dimethyl-1H-pyrrole-2-carboxamide]
181	192	145	–	–	COc1ccc(C(=O)c2c(C(N)=O)[nH]c(-c3nnn(CCO)n3)c2C)cc1Br [Compound 150, 3-(3-bromo-4-methoxybenzoyl)-5-(2-(2-hydroxyethyl)-2H-tetrazol-5-yl)-4-methyl-1H-pyrrole-2-carboxamide]
7.8	10.8	8.3	–	–	Cc1[nH]c(-c2nnn(CCOC(=O)CN)n2)c(C)c1C(=O)c1cccc(Br)c1 [Compound 152, 2-(5-(4-(3-bromobenzoyl)-3,5-dimethyl-1H-pyrrol-2-yl)-2H-tetrazol-2-yl)ethyl 2-aminoacetate]
67.5	305	73.8	–	–	Cc1[nH]c(-c2nnn(CCO)n2)c(C)c1C(=O)c1cccc(CO)c1 [Compound 163, (5-(2-(2-hydroxyethyl)-2H-tetrazol-5-yl)-2,4-dimethyl-1H-pyrrol-3-yl)(3-(hydroxymethyl)phenyl)methanone]
–	359	126	40.2	–	CCn1nnc(-c2[nH]c(C)c(C(=O)c3cccc(OCCN)c3)c2C)n1 [Compound 165, (3-(2-aminoethoxy)phenyl)(5-(2-ethyl-2H-tetrazol-5-yl)-2,4-dimethyl-1H-pyrrol-3-yl)methanone]
39.5	–	31.5	–	139	CCn1nnc(-c2[nH]c(C)c(C(=O)c3ccc(OCCN)c(Br)c3)c2C)n1 [Compound 167, (4-(2-aminoethoxy)-3-bromophenyl) (5-(2-ethyl-2H-tetrazol-5-yl)-2,4-dimethyl-1H-pyrrol-3-yl)methanone]
506	886	670	–	–	Cc1[nH]c(-c2nnn(CCO)n2)c(C)c1C(=O)c1ccc(OCCN)c(Br)c1 [Compound 168, (4-(2-aminoethoxy)-3-bromophenyl)(5-(2-(2-hydroxyethyl)-2H-tetrazol-5-yl)-2,4-dimethyl-1H-pyrrol-3-yl)methanone]
162	225	167	–	–	COc1ccc(C(=O)c2c(/C=N/O)[nH]c(-c3nnn(CCOC(C)=O)n3)c2C)cc1Br [Compound 169, (E)-2-(5-(4-(3-bromo-4-methoxybenzoyl)-5-((hydroxyimino)methyl)-3-methyl-1H-pyrrol-2-yl)-2H-tetrazol-2-yl)ethyl acetate]
133	197	143	–	–	COc1ccc(C(=O)c2c(/C=N\O)[nH]c(-c3nnn(CCOC(C)=O)n3)c2C)cc1Br [Compound 170, (Z)-2-(5-(4-(3-bromo-4-methoxybenzoyl)-5-((hydroxyimino)methyl)-3-methyl-1H-pyrrol-2-yl)-2H-tetrazol-2-yl)ethyl acetate]
37.7	47.4	35.7	–	–	CC(=O)OCCn1nnc(-c2[nH]c(CCl)c(C(=O)c3cccc(Br)c3)c2C)n1 [Compound 171, 2-(5-(4-(3-bromobenzoyl)-5-(chloromethyl)-3-methyl-1H-pyrrol-2-yl)-2H-tetrazol-2-yl)ethyl acetate]
